From PubChem BioAssay (NCI)
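A five-concentration, 48-hour dose response in 96-well plates underlies each endpoint, interpolated linearly between surrounding concentrations. The concentration for 50% growth inhibition is given as GI50. TGI marks complete inhibition of growth.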

How the values were obtained:
Test in all cases: NCI tumour cell line growth inhibition, 48 h
A549 NSCLC = tested on: A549 NSCLC
HS 578T breast = tested on: HS 578T breast
OVCAR-3 ovarian = tested on: OVCAR-3 ovarian
OVCAR-5 ovarian = tested on: OVCAR-5 ovarian
OVCAR-8 ovarian = tested on: OVCAR-8 ovarian
SK-MEL-28 melanoma = tested on: SK-MEL-28 melanoma
SNB-75 CNS = tested on: SNB-75 CNS
SW-620 colon = tested on: SW-620 colon

| SMILES | TGI (A549 NSCLC) | TGI (HS 578T breast) | TGI (OVCAR-3 ovarian) | TGI (OVCAR-5 ovarian) | TGI (OVCAR-8 ovarian) | TGI (SK-MEL-28 melanoma) | TGI (SNB-75 CNS) | TGI (SW-620 colon) | GI50 (A549 NSCLC) | GI50 (HS 578T breast) | GI50 (OVCAR-3 ovarian) | GI50 (OVCAR-5 ovarian) | GI50 (OVCAR-8 ovarian) | GI50 (SK-MEL-28 melanoma) | GI50 (SNB-75 CNS) | GI50 (SW-620 colon) |
| --- | --- | --- | --- | --- | --- | --- | --- | --- | --- | --- | --- | --- | --- | --- | --- | --- |
| CC#Cc1ccc(-c2ccccc2)s1 | > 100 µM | > 100 µM | > 100 µM | > 100 µM | > 100 µM | > 100 µM | > 100 µM | > 100 µM |  |  |  |  |  |  |  |  |
| O=C1NC(=NCc2ccccc2)S/C1=C\c1ccc2ncccc2c1 | > 25 µM | > 25 µM | > 25 µM | > 25 µM | > 25 µM | > 25 µM | > 25 µM | > 25 µM | 24.6 µM | > 25 µM | > 25 µM | > 25 µM | > 25 µM | > 25 µM | > 25 µM | > 25 µM |
| Cc1cc2c(cc1C)[n+](=O)c(C(=O)c1ccccc1)c(C(F)F)n2[O-] | 27.4 µM | > 100 µM | > 100 µM | > 100 µM | > 100 µM | > 100 µM | > 100 µM | > 100 µM | 4.9 µM | 32 µM | 18.4 µM | 36.4 µM | 7.11 µM | 17.8 µM | 60.9 µM | 21.2 µM |
| CC(=O)OCc1ccc2c(c1)C(O)NC(=O)O2 (configuration not stated) | > 100 µM | > 100 µM | 59.4 µM | > 100 µM | > 100 µM | > 100 µM | > 100 µM | > 100 µM |  |  |  |  |  |  |  |  |
| CC(=O)OC1(C)N=NC2(CCCCC2)O1 (configuration not stated) | > 100 µM | > 100 µM | > 100 µM | > 100 µM | > 100 µM | > 100 µM | > 100 µM | > 100 µM |  |  |  |  |  |  |  |  |
| O=C1c2c(F)c(F)c(F)c(F)c2C(=O)N1c1ccc(F)cc1F | 34.7 µM | > 100 µM | 27.5 µM | 26.5 µM | 50.8 µM | > 72.4 µM | 34.6 µM | 7.22 µM | 16.3 µM | 35.5 µM | 9.17 µM | 12.6 µM | 12.8 µM | 13.4 µM | 12.7 µM | 2.11 µM |
| COC1=CC(=O)C(C2(OC(C)C)OC(=O)C(Cl)=C2Cl)=CC1=O (configuration not stated) | > 100 µM | > 100 µM | > 100 µM | > 100 µM | 78.8 µM | > 100 µM | > 100 µM | > 100 µM |  |  |  |  |  |  |  |  |
| COc1cc(-c2nn(-c3cccc(NC(=O)c4ccccc4)c3)cc2-c2ccncc2)ccc1Cl | > 60.6 µM | > 40.9 µM | 13.9 µM | > 100 µM | > 100 µM | > 100 µM | > 100 µM | > 36.3 µM | 0.496 µM | 0.87 µM | 0.313 µM | 12.8 µM | 0.995 µM | 3.26 µM | 0.575 µM | 0.451 µM |
| O=[N+]([O-])c1cc([N+](=O)[O-])c(C(F)(F)F)cc1NN=C(c1ccc(O)cc1)c1ccc(O)cc1 | 14.5 µM |  | 6.11 µM | 50 µM | > 100 µM | 4.47 µM | 16.8 µM | 12.3 µM | 2.98 µM |  | 2.42 µM | 11 µM | 4.2 µM | 1.89 µM | 3.53 µM | 3.44 µM |
| COc1ccc(C(c2cc(OC)c(OC)c(OC)c2)n2cncn2)cc1O (configuration not stated) | > 100 µM | > 100 µM | 1.48 µM | > 100 µM | > 100 µM |  |  | > 100 µM | 0.969 µM | 0.548 µM | 0.323 µM | 1.99 µM | 1.14 µM |  |  | 0.431 µM |
| C=C1C(=O)O[C@H]2[C@H]1CC/C(CNC(=O)c1cc3ccccc3[nH]1)=C\CC[C@@]1(C)O[C@@H]21 | 15.7 µM | 38.7 µM | 1.69 µM | 6.26 µM | 5.87 µM |  | 21 µM | 2.01 µM | 4.39 µM | 6.62 µM | 0.504 µM | 2.37 µM | 2.08 µM |  | 6.98 µM | 0.523 µM |
| Cn1cc(-c2cc3c(N4CCN(c5ncc([C@@](C)(N)c6ccc(F)cc6)cn5)CC4)ncnn3c2)cn1 | > 100 µM | > 100 µM |  |  | > 100 µM |  | > 100 µM |  | 5.61 µM | 1.82 µM |  |  | 4.11 µM |  | 1.39 µM |  |
| Cc1cc(Nc2ccc(C)c(Cl)c2)n2nc(C(F)(F)F)nc2n1 |  | 77.4 µM | 75.9 µM | > 100 µM | > 100 µM | > 100 µM | > 100 µM | > 100 µM |  | 22.6 µM | 22 µM | 38 µM | 29.3 µM | 29.8 µM | 27.7 µM | 30.2 µM |
| C#Cc1cccc(Nc2nc3cc([N+](=O)[O-])ccc3nc2Nc2ccc(O)cc2)c1 | 4.78 µM | 4.71 µM | 4.14 µM |  | 6.48 µM | 3.34 µM | 3.42 µM | 3.87 µM | 2.17 µM | 1.89 µM | 1.87 µM |  | 2.33 µM | 1.78 µM | 1.36 µM | 1.79 µM |
